The results in this text go back to patent US20230002446A1, “ANTI-INFLAMMATORY AGENTS” (The University of Sydney, priority 2019, published 2023).

The test system of series [1] is C57BL/6 mice. In words: imiquimod-induced psoriasis model. Type of series: in vivo. The procedure:
FIG. 4—Peptide administration reduces local disease severity in a mouse model of psoriasis. (A) Experimental outline (B) Clinical scores of mice receiving PBS or peptide RP23 (SEQ ID NO:12) injection, compared to daily (0-4 days) topical application of glucocorticoid on the back and ear. (C) Measures of disease local to the peptide RP23 injection site. Redness was measured using an unbiased erythema meter and skin thickness by manual callipers. (D) Spleen weight at day 5 as a measure of systemic immune suppression. […] Data are presented as mean±S.E.M. Statistical significance was determined by ANOVA with Dunnett's multiple comparison test, *p<0.05, **p<0.01, ***p<0.001, ****p<0.0001.
FIG. 10. Therapeutic synergy of RP23 and topical steroid in the murine imiquimod-induced psoriasis model. Aldara cream (5% imiquimod, 57.5 mgs) was applied daily (days 0-4) to the backs of C57BL/6 female mice to induce psoriasis. Clinical scores (PASI), modified psoriasis area and severity index) of mice receiving (A) PBS or RP23 injection at day −1, with or without topical application of glucocorticoid (0.05% betamethasone dipropionate, “BD” 30 mgs) on the back at day 0 (B) PBS or RP23 injection at day 1 and topical application of glucocorticoid at day 1, in comparison to PBS injection only at day −1. Data are the means+/−SEM (n=5). Statistical significance was determined by ANOVA with Dunnett's multiple comparison test to PBS only control, *p<0.05, **p<0.01, ***p<0.001, ****p<0.0001.
The backs of 8-week old female C57BL/6 mice (Australian BioResources) were coarse shaved. A minimum of 24 hours later, 10 nmol RP23 was delivered via sub-cutaneous injection at the lower back in 200 μl phosphate buffered saline (PBS). Groups of mice acting as positive controls for disease development received injection of PBS only. One or seven days later, psoriasis-like inflammation was induced via topical application of 5% imiquimod cream (Aldara, Inova Pharmaceuticals) to the shaved back (57.5 mgs) and one ear (5 mg, divided between dorsal and ventral sides). The contralateral ear served as a negative control for imiquimod-induced inflammation. Imiquimod application was repeated daily for four consecutive days. C57BL/6 mice experience rapid weight loss (up to 20%) upon application of imiquimod cream. Supportive care was provided in the form of dietary supplementation commenced 2 days prior to imiquimod application, and intra-peritoneal injection of 300 μl sterile PBS on days two and three of imiquimod application. Disease progression was monitored for five days, by recording weight loss and grading disease of the back skin using a modified Psoriasis Area and Severity Index (PASI) clinical scoring system, that assessed only disease severity. Additionally, erythema meter (DSM II ColorMeter, Cortex Technology, Denmark) readings were taken at four quadrants on the back skin and skin backfold thickness measurements were recorded using manual callipers. Disease progression of the ear skin was determined by recording ear thickness, measured by manual callipers. As a positive control for immune suppressive therapy, groups of mice received daily topical application of betamethasone dipropionate 0.05% (MSD) cream (30 mgs on the back, 10 mgs on the ear).
Aldara cream (5% imiquimod, 57.5 mgs) was applied daily (days 0-4) to the backs of C57BL/6 female mice to induce psoriasis. Clinical scores (PASI, modified psoriasis area and severity index) of mice receiving prophylactic PBS or RP23 (at day −1), with or without topical application of glucocorticoid (0.05% betamethasone dipropionate, 30 mgs) to the back at day 0, were determined (FIG. 10A).
RP23 and BD therapy were also tested when given synergistically at a therapeutic timepoint (at day 1). Psoriasis was induced as above, but clinical scores were determined daily for 10 days after ceasing imiquimod application at day 5, to record the rate and degree of psoriasis disease resolution (FIG. 10B).

The test system of series [2] is C57BL/6 mice. Kind of series: contact hypersensitivity model (DNFB-induced contact dermatitis). It is filed as in vivo. To be noted: for specific increase in ear thickness: equivalent molar amount of 10 nmol RP23, subcutaneously at the abdomen (FIG. 9); for inflammatory response (ear thickness over 72 hours): 10 nmol subcutaneously at the abdomen, compared to PBS (FIG. 8). The protocol:
FIG. 2—Peptide administration reduces inflammation in a mouse model of contact dermatitis and reduces myeloid inflammatory infiltrate. (A) Experimental outline of DNFB-induced contact dermatitis. (B) Ear thickness of peptide RP23 (SEQ ID NO:12) treated mice, repeated 3 times. […] Data are presented as mean±S.E.M. Statistical significance was determined (B) by multiple t tests (C) by ANOVA with Dunnett's multiple comparison test, *p<0.05, **p<0.01, ***p<0.001.
FIG. 3—The peptide effect is dependent on the peptide sequence and dose. (A) PBS, scrambled peptide or peptide MUC1SP ([…]; SEQ ID NO: 3) was injected subcutaneously seven days prior to sensitising C57BL/6 mice (n=5) with DNFB on the abdomen. […] (B) A comparison of the immunosuppressive effect of peptide RP23 (SEQ ID NO:12) and MUC1SP (SEQ ID NO: 3). (C) SEQ ID NO:12 suppressed immunity in a dose dependent manner. (D) Addition of GM-CSF to the SEQ ID NO:12 injection abrogated the immune suppression. Data are the means±S.E.M.
FIG. 8—Effects of peptide variants on the inflammatory response. Mice received one injection of PBS or one of the following peptides (10 nmol) subcutaneously at the abdomen (A) peptide RP23 (SEQ ID NO: 12), peptide AF594-RP23 (SEQ ID NO: 21), peptide K4-G3-MUC1SP (SEQ ID NO:22) or MUC1SP C fragment (SEQ ID NO: 2). Five days later, mice were challenged with DNFB at a distal site, on the ears. The thickness of the ears was measured over 72 hours.
FIG. 9—Effects of further peptide variants, without N-terminal methionine, on the inflammatory response in a model of contact dermatitis. Mice received one injection of PBS, RP23 (SEQ ID NO:12) (10 nmol) or one of the peptide variants indicated in the table including SEQ ID NO: 32 and 35 as described herein (equivalent molar amount of RP23), subcutaneously at the abdomen. Photoleucine replaces leucine where indicated, these molecules used for photo-crosslinking studies. Seven days later, abdominal skin was sensitised with a contact irritant (DNFB) and five days later, mice were challenged with DNFB at a distal site, on the ears. (A) Specific increase in ear thickness over 72 hours, data are the means+/−SEM (n=6). Statistical significance was determined by ANOVA with Dunnett's multiple comparison test to PBS only control, **p<0.01. (B) Specific increase in ear thickness at 24 hours post-challenge. Data are the means+/−SEM (n=6). Statistical significance was determined by t-test to relevant control, as indicated, *p<0.05, **p<0.01, ns=not significant.
The abdomens of 8-week old female C57BL/6 mice (Australian BioResources) were coarse shaved. A minimum of 24 hours later, RP23 (SEQ ID NO:12) was delivered via sub-cutaneous injection at the abdomen in 50 μl phosphate buffered saline. Seven days later, mice were topically sensitised to 1-fluoro-2,4-dinitrobenzene (DNFB, 0.5 vol %) in olive oil/acetone (1:4, v/v, 30 μl) via application to the shaved abdomen. Five days after sensitisation, mice were challenged on the ears with topical DNFB (0.25 vol %) in olive oil/acetone (1:4, v/v, 15 μl per ear). Ear thickness was measured daily using manual callipers from immediately before challenge, up to 96 hours post challenge. Positive controls for ear swelling consisted of mice that were injected with PBS instead of RP23. Negative or irritant controls consisted of a group of mice that received the DNFB challenge, but not the sensitisation. The average of the change in ear thickness from this control group was subtracted from the change in ear thickness of other samples to account for non-specific irritation due to the application of DNFB, olive oil and acetone.
The inventors then conducted additional in vivo studies, using a model of contact hypersensitivity, to determine the portion of RP23 responsible for its immunomodulatory activity. Mice received one injection of peptide (10 nmol) subcutaneously at the abdomen, seven days prior to sensitisation of the skin with a contact irritant (DNFB). […]

Series [3] relates to C57BL/6 mice. Conditions: mouse, in vivo.
Protocol: AF594-RP23^+ cells were identified by flow cytometry 24 hours after administration to C57BL/6 mice. (A) RP23 was injected subcutaneously at the lower back. […] (B) RP23 was delivered to the lungs by intranasal instillation. The percentage distribution of total RP23^+ leukocytes amongst immune cell subsets in the lungs is shown. Data are the means+/−SEM (n=4).
AF594-RP23+ cells were identified by flow cytometry 24 hours after administration to C57BL/6 mice.
The mark [4] stands for this setting: daily topical 0.05% cream, 30 mgs back, 10 mgs ear.

Where no end group is shown, it is not given here. [ ]: non-standard residue; d: D form. Ala(3-Me-diazirin-3-yl) = CC1(C[C@H](N)C(=O)O)N=N1; PEG = not defined here

For the compound `CCC(=O)OCC(=O)[C@@]1(OC(=O)CC)[C@@H](C)C[C@H]2[C@@H]3CCC4=CC(=O)C=C[C@]4(C)[C@@]3(F)[C@@H](O)C[C@@]21C` [betamethasone dipropionate, reference compound], in the series on C57BL/6 mice [1] (setting [4]), the spleen weight result is listed as “substantial reductions in spleen weight” and the weight loss entry was “greater degree of weight loss”. Further, the “clinical scores (PASI), protective effect as the disease progressed” value with C57BL/6 mice [1] (prophylactic: injection day -1, BD day 0, later time points) is reported as “protective effect from BD alone was lost”. Besides, the “systemic immune suppression / locality of effect” value with C57BL/6 mice [1] (spleen weight at day 5, distal ear thickness (FIG. 4d)) is “caused unwanted systemic immune suppression”.
In the case of “(Gd)DOTA-KKKK-PEG-TPGTQSPFFLLLLLTVLTVV (KKKK[PEG]TPGTQSPFF[Ala(3-Me-diazirin-3-yl)][Ala(3-Me-diazirin-3-yl)][Ala(3-Me-diazirin-3-yl)][Ala(3-Me-diazirin-3-yl)][Ala(3-Me-diazirin-3-yl)]TVLTVV; not fully specified (N-terminus); reading uncertain; also: Gd chelated by DOTA; listed as Homo sapiens) [SEQ ID NO: 32]”, the “specific increase in ear thickness” value in the series on C57BL/6 mice [2] is listed as “confirmed”.
As for “AF594-KKKK-PEG-MTPGTQSPFFLLLLLTVLTVV (KKKKMTPGTQSPFFLLLLLTVLTVV; AF594-KKKK-PEG N-terminal; (1)..(1) Alexa Fluor 594 backbone modification; (4)..(5) polyethylene glycol (PEG) backbone modification between residues 4 and 5; listed as Homo sapiens) [SEQ ID NO: 21]”, the “inflammatory response (ear thickness over 72 hours)” value with C57BL/6 mice [2] is on record as “led to a reduced inflammatory response”. Further, in the series with C57BL/6 mice [3], the “cells capturing the peptide in the lung” value was “primarily captured by neutrophils, alveolar macrophages and DC”; the “cells capturing the peptide in the skin” value is recorded as “primarily captured in the skin by neutrophils (CD11 b+Ly6G+) or CD11 b+ myeloid cell subsets”.
For “Biotin-KKKK-PEG-TPGTQSPFFLLLLL*TVLTVV, wherein L* is photoleucine [SEQ ID NO: 35]”, the “specific increase in ear thickness” value in the series on C57BL/6 mice [2] was “confirmed”.
The same measure, in the same setting: next, “Biotin-KKKK-peg-QLTLTFVPSTLGFL*TLPVLV (no N-term Met) [scrambled variant of SEQ ID NO. 35, reference compound]”: “did not have a reduction in ear inflammation”.
Take “KKKKGGGMTPGTQSPFFLLLLLTVLTVV (listed as Homo sapiens) [SEQ ID NO: 22]”: the “inflammatory response (ear thickness over 72 hours)” value with C57BL/6 mice [2] was “led to a reduced inflammatory response”.
Same read-out and setting: with “LLLLLTVLTVV (listed as Homo sapiens) [SEQ ID NO: 2]” the entry was “led to a reduced inflammatory response”.
Turning to “MTPGTQSPFFLLLLLTVLTVV (listed as Homo sapiens) [SEQ ID NO: 3]”, in the series on C57BL/6 mice [2] (subcutaneous seven days prior to sensitising with DNFB (FIG. 3a)), the “ear swelling, sequence specificity” value is “the effect was specific to the SEQ ID NO: 3 sequence”.
